In PMC11876601 (Molecular Systems Biology, 2025):
Like-named read-outs stand apart in the source and are kept apart here.

Columns and labels:
Assay in all cases: cells
Colo-357 [1] = system: Colo-357; design: ATPlite luminescence viability of PDAC cell lines, 11-dose single-agent curves, 4-parameter fit; conditions: Homo sapiens, COLO357, 72 h, read-out: EC50 [nM]
Procedure: (§1) Afterward, small amounts were transferred to 384-well intermediate plates (Greiner Bio-One GmbH, Germany). […] For drug combination screening, 1000 to 5000 cells were seeded into 384-well plates (CulturPlate™, Perkin Elmer, MA, USA) using a Multidrop™ Combi Reagent Dispenser (Thermo Scientific, MA, USA) in 50 µl medium per well 24 h prior to drug treatment (seeding densities see Appendix Table S1). […] The final DMSO concentration in each well was 0.2%. […] Eight wells per plate without library drug served as negative controls, and sixteen wells per plate containing 5 µM Staurosporine served as positive controls. […] Next, we analyzed the drug sensitivity of immortalized duct cell line HPDE to detect effects unrelated to pancreatic cancer.

BxPC-3 [2] = system: BxPC-3; design: Viability of PDAC cell lines, ATPlite luminescence, 11-dose single-agent curve fit; conditions: Homo sapiens, BXPC-3, 72 h, read-out: EC50 [nM]
Summary of the method: (§2)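 cells (1000 to 5000 per well) seeded 24 h before drug addition in a screen at 0.2% final DMSO. Controls were drug-free wells (negative) and 5 µM staurosporine (positive).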

Capan-1 = system: Capan-1; design: Viability of PDAC cell lines, ATPlite luminescence, 11-dose single-agent curve fit; conditions: Homo sapiens, CAPAN-1, 72 h, read-out: EC50 [nM]
Summary of the method: as §2

AsPC-1 [3] = system: AsPC-1; design: Viability of PDAC cell lines, ATPlite luminescence, 11-dose single-agent curve fit; conditions: Homo sapiens, ASPC1, 72 h, read-out: EC50 [nM]
Summary of the method: as §2

HuP-T4 = system: HuP-T4; design: Viability of PDAC cell lines, ATPlite luminescence, 11-dose single-agent curve fit; conditions: Homo sapiens, HuP-T4, 72 h, read-out: EC50 [nM]
Summary of the method: as §2

PSN-1 [4] = system: PSN-1; design: Viability of PDAC cell lines, ATPlite luminescence, 11-dose single-agent curve fit; conditions: Homo sapiens, PSN1, 72 h, read-out: EC50 [nM]
Summary of the method: as §2

MiaPaCa-2 [5] = system: MiaPaCa-2; design: Viability of PDAC cell lines, ATPlite luminescence, 11-dose single-agent curve fit; conditions: Homo sapiens, MIA PaCa-2, 72 h, read-out: EC50 [nM]
Summary of the method: as §2

HPDE = system: HPDE; design: Viability of PDAC cell lines, ATPlite luminescence, 11-dose single-agent curve fit; conditions: HPDE, 72 h, read-out: EC50 [nM]
Summary of the method: as §2

Suit2-07 [6] = system: Suit2-07; design: Viability of PDAC cell lines, ATPlite luminescence, 11-dose single-agent curve fit; conditions: 72 h, read-out: EC50 [nM]
Summary of the method: as §2

Dan-G [7] = system: Dan-G; design: Viability of PDAC cell lines, ATPlite luminescence, 11-dose single-agent curve fit; conditions: 72 h, read-out: EC50 [nM]
Summary of the method: as §2

FAMPAC [8] = system: FAMPAC; design: Viability of PDAC cell lines, ATPlite luminescence, 11-dose single-agent curve fit; conditions: 72 h, read-out: EC50 [nM]
Summary of the method: as §2

PANC-1 = system: PANC-1; design: Viability of PDAC cell lines, ATPlite luminescence, 11-dose single-agent curve fit; conditions: Homo sapiens, PANC-1, 72 h, read-out: EC50 [nM]
Summary of the method: as §2

PaTu-8988-T [9] = system: PaTu-8988-T; design: Viability of PDAC cell lines, ATPlite luminescence, 11-dose single-agent curve fit; conditions: Homo sapiens, PaTu 8988t, 72 h, read-out: EC50 [nM]
Summary of the method: as §2

PSN-1 [10] = system: PSN-1; design: ATPlite luminescence viability of PDAC cell lines, 11-dose single-agent curves, 4-parameter fit; conditions: Homo sapiens, PSN1, 72 h, read-out: EC50 [nM]
Procedure: as §1

MiaPaCa-2 [11] = system: MiaPaCa-2; design: ATPlite luminescence viability of PDAC cell lines, 11-dose single-agent curves, 4-parameter fit; conditions: Homo sapiens, MIA PaCa-2, 72 h, read-out: EC50 [nM]
Procedure: as §1

Suit2-07 [12] = system: Suit2-07; design: ATPlite luminescence viability of PDAC cell lines, 11-dose single-agent curves, 4-parameter fit; conditions: 72 h, read-out: EC50 [nM]
Procedure: as §1

Dan-G [13] = system: Dan-G; design: ATPlite luminescence viability of PDAC cell lines, 11-dose single-agent curves, 4-parameter fit; conditions: 72 h, read-out: EC50 [nM]
Procedure: as §1

PaTu-8988-T [14] = system: PaTu-8988-T; design: ATPlite luminescence viability of PDAC cell lines, 11-dose single-agent curves, 4-parameter fit; conditions: Homo sapiens, PaTu 8988t, 72 h, read-out: EC50 [nM]
Procedure: as §1

Colo-357 [15] = system: Colo-357; design: Viability of PDAC cell lines, ATPlite luminescence, 11-dose single-agent curve fit; conditions: Homo sapiens, COLO357, 72 h, read-out: EC50 [nM]
Summary of the method: as §2

BxPC-3 [16] = system: BxPC-3; design: ATPlite luminescence viability of PDAC cell lines, 11-dose single-agent curves, 4-parameter fit; conditions: Homo sapiens, BXPC-3, 72 h, read-out: EC50 [nM]
Procedure: as §1

AsPC-1 [17] = system: AsPC-1; design: ATPlite luminescence viability of PDAC cell lines, 11-dose single-agent curves, 4-parameter fit; conditions: Homo sapiens, ASPC1, 72 h, read-out: EC50 [nM]
Procedure: as §1

FAMPAC [18] = system: FAMPAC; design: ATPlite luminescence viability of PDAC cell lines, 11-dose single-agent curves, 4-parameter fit; conditions: 72 h, read-out: EC50 [nM]
Procedure: as §1

## Cc1cc2c(F)c(Oc3ncnn4cc(OC[C@@H](C)OC(=O)[C@H](C)N)c(C)c34)ccc2[nH]1 [Brivanib alaninate]
Colo-357 [1]
  EC50: 3560 nM
BxPC-3 [2]
  EC50: > 10000 nM
Capan-1
  EC50: > 10000 nM
AsPC-1 [3]
  EC50: 3000 nM
HuP-T4
  EC50: 2460 nM
PSN-1 [4]
  EC50: 3990 nM
MiaPaCa-2 [5]
  EC50: 3140 nM
HPDE
  EC50: 3160 nM
Suit2-07 [6]
  EC50: > 10000 nM
Dan-G [7]
  EC50: 3820 nM
FAMPAC [8]
  EC50: > 10000 nM
PANC-1
  EC50: 3760 nM
PaTu-8988-T [9]
  EC50: > 10000 nM

## CC(=O)c1c(C)c2cnc(Nc3ccc(N4CCNCC4)cn3)nc2n(C2CCCC2)c1=O [Palbociclib]
PSN-1 [10]
  EC50: > 10000 nM
MiaPaCa-2 [11]
  EC50: > 10000 nM
Colo-357 [1]
  EC50: 5610 nM
Suit2-07 [12]
  EC50: > 10000 nM
Dan-G [13]
  EC50: 8540 nM
PaTu-8988-T [14]
  EC50: > 10000 nM
BxPC-3 [2]
  EC50: 2930 nM
Capan-1
  EC50: 5070 nM
AsPC-1 [3]
  EC50: 4830 nM
HuP-T4
  EC50: 0.1 nM
HPDE
  EC50: > 10000 nM
FAMPAC [8]
  EC50: 1390 nM
PANC-1
  EC50: > 10000 nM

## Cc1cc(Nc2ncnc3ccc(NC4=NC(C)(C)CO4)cc23)ccc1Oc1ccn2ncnc2c1 [Tucatinib]
Colo-357 [1]
  EC50: 240 nM
Dan-G [13]
  EC50: 222 nM
BxPC-3 [2]
  EC50: 1010 nM
Capan-1
  EC50: 121 nM
AsPC-1 [3]
  EC50: > 10000 nM
HuP-T4
  EC50: 292 nM
PSN-1 [4]
  EC50: 24.4 nM
MiaPaCa-2 [5]
  EC50: 7710 nM
HPDE
  EC50: 3660 nM
Suit2-07 [6]
  EC50: > 10000 nM
FAMPAC [8]
  EC50: 7060 nM
PANC-1
  EC50: 5670 nM
PaTu-8988-T [9]
  EC50: > 10000 nM

## Cc1cc2cc(Oc3ccnc(Nc4cccc(CS(=O)(=O)NCCN(C)C)c4)n3)ccc2[nH]1 [Sulfatinib]
MiaPaCa-2 [11]
  EC50: 3080 nM
PaTu-8988-T [14]
  EC50: > 10000 nM
BxPC-3 [2]
  EC50: 4560 nM
Capan-1
  EC50: 3530 nM
AsPC-1 [3]
  EC50: > 10000 nM
HuP-T4
  EC50: 1900 nM
PSN-1 [4]
  EC50: 5780 nM
HPDE
  EC50: 5550 nM
Colo-357 [15]
  EC50: 6810 nM
Suit2-07 [6]
  EC50: > 10000 nM
Dan-G [7]
  EC50: > 10000 nM
FAMPAC [8]
  EC50: > 10000 nM
PANC-1
  EC50: 7980 nM

## CC[C@H](Nc1ncnc2[nH]cnc12)c1nc2cccc(F)c2c(=O)n1-c1ccccc1 [Idelalisib]
Colo-357 [1]
  EC50: 3360 nM
Dan-G [13]
  EC50: 2130 nM
BxPC-3 [2]
  EC50: 3910 nM
Capan-1
  EC50: 9330 nM
AsPC-1 [3]
  EC50: 2530 nM
HuP-T4
  EC50: 754 nM
PSN-1 [4]
  EC50: 545 nM
MiaPaCa-2 [5]
  EC50: 8760 nM
HPDE
  EC50: 9240 nM
Suit2-07 [6]
  EC50: 5950 nM
FAMPAC [8]
  EC50: > 10000 nM
PANC-1
  EC50: 3010 nM
PaTu-8988-T [9]
  EC50: 10000 nM

## Cn1cnc2c(F)c(Nc3ccc(Br)cc3F)c(C(=O)NOCCO)cc21 [Binimetinib]
BxPC-3 [16]
  EC50: 381 nM
AsPC-1 [17]
  EC50: 83.9 nM
PSN-1 [10]
  EC50: 71.8 nM
MiaPaCa-2 [11]
  EC50: 10.7 nM
FAMPAC [18]
  EC50: 2430 nM
Capan-1
  EC50: 401 nM
HuP-T4
  EC50: 176 nM
HPDE
  EC50: 222 nM
Colo-357 [15]
  EC50: 58.4 nM
Suit2-07 [6]
  EC50: 112 nM
Dan-G [7]
  EC50: 504 nM
PANC-1
  EC50: 350 nM
PaTu-8988-T [9]
  EC50: 155 nM

## Cn1cc(C2=C(c3cn(C4CCN(Cc5ccccn5)CC4)c4ccccc34)C(=O)NC2=O)c2ccccc21 [Enzastaurin]
PSN-1 [10]
  EC50: > 10000 nM
BxPC-3 [2]
  EC50: > 10000 nM
Capan-1
  EC50: 401 nM
AsPC-1 [3]
  EC50: 7970 nM
HuP-T4
  EC50: 2270 nM
MiaPaCa-2 [5]
  EC50: > 10000 nM
HPDE
  EC50: 9200 nM
Colo-357 [15]
  EC50: 109 nM
Suit2-07 [6]
  EC50: > 10000 nM
Dan-G [7]
  EC50: 873 nM
FAMPAC [8]
  EC50: > 10000 nM
PANC-1
  EC50: 4980 nM
PaTu-8988-T [9]
  EC50: 5780 nM
